Measured values as given in article PMC10051608, “Multi-Compartmental Dissolution Method, an Efficient Tool for the Development of Enhanced Bioavailability Formulations Containing Poorly Soluble Acidic Drugs” (Pharmaceutics, 2023).
In brackets after ≈: the same amount, converted by molar mass.

Columns and labels:
[1] = pH-dependent equilibrium solubility, saturation shake-flask method in Britton-Robinson buffers and 1 M NaOH; type: physicochemical; settings: 37 °C; for solubility thermodynamic at 6 h: aqueous buffer, thermodynamic from solid, mean of 3, read-out: SpH ± SD
Experimental: The saturation shake–flask method was used to determine the equilibrium solubility of the API [34, 35]. The measurements were carried out at 37 ± 0.1 °C. […] In case it was necessary, the pH was adjusted to the initial value with 1M NaOH solution after 1 h. The flasks were then placed in a GFL 1092 type shaking water bath (GFL GmbH, Burgwedel, Germany) and shaken at 150 rpm for 6 h. The agitation phase was followed by 18 h sedimentation at controlled temperature. A total of 3 aliquot (10–100 µL) samples were then taken from the saturated solution and diluted to the required extent (2–250x) with the tested medium. The concentration was measured by UV spectroscopy at λmax: 264 nm. […] In each medium, the solubility experiments were performed in triplicate.

[2] = Equilibrium solubility in biorelevant media, saturation shake-flask method; type: physicochemical; settings: for solubility thermodynamic at 6 h: thermodynamic from solid, read-out: SpH ± SD; for increase in solubility: biorelevant media
Experimental: The saturation shake–flask method was used to determine the equilibrium solubility of the API [34, 35]. The measurements were carried out at 37 ± 0.1 °C. […] In case it was necessary, the pH was adjusted to the initial value with 1M NaOH solution after 1 h. The flasks were then placed in a GFL 1092 type shaking water bath (GFL GmbH, Burgwedel, Germany) and shaken at 150 rpm for 6 h. The agitation phase was followed by 18 h sedimentation at controlled temperature. A total of 3 aliquot (10–100 µL) samples were then taken from the saturated solution and diluted to the required extent (2–250x) with the tested medium. The concentration was measured by UV spectroscopy at λmax: 264 nm. […] In each medium, the solubility experiments were performed in triplicate. […] The equilibrium solubility was also investigated in biorelevant media modelling gastric and small intestinal fluid in a fasted and fed state with and without solubilizing agents (pepsin or lecithin and bile acid salts). The tested biorelevant media were Blank FaSSGF, FaSSGF, Blank FaSSIF, FaSSIF, FeSSGF-acetate (without milk), Blank FeSSIF, and FeSSIF.

[3] = literature data measured at 25 °C; cited from earlier work

In the case of `CC(C)Cc1ccc(C(C)C(=O)O)cc1` (stereo not drawn) [ibuprofen], the solubility thermodynamic at 6 h ([1]; BR (Britton-Robinson) buffer, pH 1.92 (nominal pH 2.0) BR buffer) is reported as 0.0708 ± 0.003 mg/mL (≈ 0.343 mM), the solubility thermodynamic at 6 h ([1]; BR (Britton-Robinson) buffer, pH 3.96 BR buffer) is reported as 0.124 ± 0.013 mg/mL (≈ 0.601 mM) and the solubility thermodynamic at 6 h ([1]; BR (Britton-Robinson) buffer, pH 5.95 BR buffer) is reported as 1.91 ± 0.07 mg/mL (≈ 9.26 mM). The solubility thermodynamic at 6 h ([1]; BR (Britton-Robinson) buffer, pH 7.17 BR buffer) was 32 mg/mL (≈ 155 mM), the solubility thermodynamic at 6 h ([1]; BR (Britton-Robinson) buffer, pH 8.02 BR buffer) was 300 mg/mL (≈ 1450 mM) and the solubility thermodynamic at 6 h ([1]; pH 14, 1 M NaOH) was 734 mg/mL (≈ 3560 mM). The logSpH ([1]; pH 1.92 (nominal pH 2.0) BR buffer) was −3.46 mol/L, the logSpH ([1]; pH 3.96 BR buffer) was −3.22 mol/L and the logSpH ([1]; pH 5.95 BR buffer) was −2.03 mol/L. The logSpH ([1]; pH 7.17 BR buffer) was −0.81 mol/L, the logSpH ([1]; pH 8.02 BR buffer) was 0.16 mol/L and the logSpH ([1]; pH 14, 1 M NaOH) was 0.55 mol/L. For the same molecule, the solubility thermodynamic at 6 h ([2]; FeSSGF-acetate (without milk), fassgf or other biorelevant, FeSSGF-acetate, pH 4.5, 37 °C) was 194 ± 2 µg/mL (≈ 0.94 mM), the increase in solubility ([2]; changing the pH from 1.6 to 4.5) was 3.4 fold and the increase in solubility ([2]; changing the pH from 1.6 to 5.0) was 7.4 fold. The increase in solubility ([2]; changing the pH from 1.6 to 6.5) was 44.6 fold, the solubility thermodynamic at 6 h ([2]; fassgf or other biorelevant, FeSSIF blank, pH 5.0, 37 °C) was 416 ± 12 µg/mL (≈ 2.02 mM) and the “effect of pepsin on solubility” value ([2]; gastric pH) was “no effect”. The solubility thermodynamic at 6 h ([2]; FaSSIF, pH 6.5, 37 °C) was 3160 ± 31 µg/mL (≈ 15.3 mM), the solubility thermodynamic at 6 h ([2]; FeSSIF, pH 5.0, 37 °C) was 2100 ± 56 µg/mL (≈ 10.2 mM) and the “intrinsic solubility logS0” value [3] was −3.62.
